Data set [1] can be described thus: cytotoxicity (minimum toxic concentration) in the infected Vero cell cultures. It is filed as cell-based, African Green Monkey. The note with it: monkey; minimum concentration of test compound which caused cytotoxicity; Vero cells, highest concentration tested 100 µg/ml; read-out: MTD. The procedure: (§1) Vero (African Green Monkey Kidney) cells were grown to confluence in 24 well multidishes, each well being 1.6 cm in diameter. The cells were infected with Herpes Simplex type 1 virus (HFEM strain) and overlaid with 0.5 mL of 0.9% agarose (w/v) in maintenance medium in concentrations ranging from 100 to 0.03 µg/ml in half-log dilution steps, were added in 0.5 mL volume. The virus infected cultures were then incubated at 37 °C for 4 days before fixing in 4% formaldehyde solution and staining with carbolfuchsin.

The subject of data set [2] is Herpes Simplex type 1 virus (HFEM strain). The experiment in a line: plaque reduction assay in Vero cells infected with Herpes Simplex type 1 virus. In kind it is cell-based. The note with it: Vero cells, HSV-1 HFEM strain, 4 days at 37 C; for EC50: read-out: PDD50 (the source's name). The protocol:
as §1
Background: Plaque reduction counts the foci of infection that form in a cell layer.

For data set [3], the system named is Vero (African Green Monkey Kidney) cells. Description: cytotoxicity (minimum toxic concentration) in the infected Vero cell cultures. In kind it is cell-based. The note with it: vero cells, 96 h. The protocol: as §1
[4] abbreviates: concentration causing 50% reduction in number of virus plaques.

Read-outs that look alike come from different tables or passages of the source.

For the molecule `O=C(COc1ccccc1)OC[C@H]1O[C@@H](n2cc(/C=C/Br)c(=O)[nH]c2=O)C[C@@H]1OC(=O)COc1ccccc1` [Example 36, 5-(E-2-Bromovinyl)-2'-deoxy-3',5'-di-0-(phenoxyacetyl)-uridine], in data set [1], the MCC at 96 h is above 100 µg/mL. For the same molecule, the EC50 in data set [2] (Human alphaherpesvirus 1, 96 h, concentration causing 50% reduction in number of virus plaques) stood at 0.57 mg/L; in data set [2] (Human alphaherpesvirus 1, 96 h, same PD50 expressed in µM), 0.95 µM.

Regarding “E-5-(2-Bromovinyl)-3'-trimethylsilyl-5'-(4-dipropylsulphamoylbenzoyl- oxyacetyl)-2'-deoxyuridine [Example 14]”, the MTD in data set [3] was above 100 µg/mL. For the same molecule, the PDD50 in data set [2] (setting [4]) is 0.32 µg/mL. In addition, in data set [2] (same PD50 expressed in µM), the EC50 amounted to 0.48 µM.

“E-5-(2-Bromovinyl)-5'-(L-2-t-butyldimethylsilyloxy-3-phenylpropionyl)-2'-deoxyuridine [Example 16]” showed an MTD in data set [3] above 100 µg/mL. In data set [2] (setting [4]), this molecule showed a PDD50 of 0.63 µg/mL. Moreover, the EC50 in data set [2] (same PD50 expressed in µM) came to 0.68 µM.

(Values after EP0097039A1, “5-(E-2-halovinyl)-2'-deoxyuridine derivatives, processes for their preparation, pharmaceutical compositions containing them, and their use in treating viral infections” (BEECHAM GROUP PLC, priority 1982, dated 1983).)
